According to patent US6407081B1, “Method for inhibiting cytokine production by cells” (Previsan AG, priority 1997, dated 2002):

How the values were obtained:
IL-2 = IL-2 production by PHA/PMA-stimulated mononuclear cells, ELISA (Example 7); assay type: cell-based; conditions: human mononuclear cells, PHA + PMA, 48 h
Method: (§1) 200 ml of blood are taken and heparinised from healthy male and female volunteers. Mononuclear cells are isolated by Ficoll-Hypaque centrifugation and resuspended in a medium consisting of RPMI 1640 complemented by 5% autologous serum, […] of glutamine, […] of penicillin, 10 μg/ml of streptomycin, 10 μg/ml of phytohaemagglutinin (PHA), 10 μg/ml of phorbol myristate acetate (PMA) and test compounds as stated per individual experiment at a cellular density of 2,000,000 per ml. The cells are distributed in 96 well microtitre plates in 250 μl portions per well and incubated for 48 hours at 37° C. The supernatants are then harvested and the IL-2 and IL-5 concentrations quantified by a standard ELISA assay using a biotin/streptavidin system. By way of variant, PHA was replaced with 0.1 μg/ml of monoclonal antibodies directed against human CD3 in order to achieve more specific activation of the T cells.

IL-5 = IL-5 production by PHA/PMA-stimulated mononuclear cells, ELISA (Example 7); assay type: cell-based; conditions: human mononuclear cells, PHA + PMA, 48 h
Method: as §1

tumour necrosis factor = conditions: dose of 1 mmol; endotoxin-induced activation of alveolar macrophages; cited from earlier work
[1] = medium not stated; cited from earlier work

Structure (SMILES) | IL-2 inhibition (%) (IL-2; 10 μM) | IL-2 inhibition (%) (IL-2; 32 μM) | IL-5 inhibition (%) (IL-5; 10 μM) | IL-5 inhibition (%) (IL-5; 32 μM) | production of tumour necrosis factor (tumour necrosis factor) | half-life [1] | inhibition at 10 µM (IL-2; 10 μM) [%] | inhibition at 32 µM (IL-2; 32 μM) [%] | inhibition at 10 µM (IL-5; 10 μM) [%] | inhibition at 32 µM (IL-5; 32 μM) [%]
CN(C)C(=O)N=NC(=O)N(C)C [A, 1,1′-azobisdimethylformamide] | 3 | 28 | 12 | 29 | insignificant increase | only a few minutes | – | – | – | –
O=C(N=NC(=O)N1CCCCC1)N1CCCCC1 [B, 1,1′-(azodicarbonyl)dipiperidine] | – | – | – | – | – | – | 0.2 | 11 | 17 | 39
O=C(N=NC(=O)N1CCOCC1)N1CCOCC1 [C, 1,1′-(azodicarbonyl)dimorpholine] | 6 | 9 | 37 | 51 | – | – | – | – | – | –
